Source: ChEMBL document CHEMBL3407491, “Synthesis, characterization and in vitro photodynamic antimicrobial activity of basic amino acid-porphyrin conjugates” (Eur J Med Chem, 2015)
In brackets after ≈: the same amount, converted by molar mass. Activity calls are given as the source filed them. The calls are words filed in the database; no cut-off is given here.

Legend:
[1] = Photostability at 2 x 10^-5 mol/L exposed to 4.2 mW/cm2 light energy density assessed as change in absorption spectra after 30 mins post irradiation; assay type: physicochemical; settings: 0.5 h, 20 µM
[2] = system: Pseudomonas aeruginosa; assay: Antibacterial activity against Pseudomonas aeruginosa ATCC 27853 incubated in dark for 30 mins followed by exposure to light fluences at 650 nm and 6 J/cm2 and then incubated overnight measured after 24 hrs; assay type: functional; settings: ATCC 27853, light or radiation study
[3] = system: Pseudomonas aeruginosa; assay: Antibacterial activity against Pseudomonas aeruginosa ATCC 27853 incubated in dark for 30 mins measured after 24 hrs; assay type: functional
[4] = system: Staphylococcus aureus; assay: Antibacterial activity against methicillin-resistant Staphylococcus aureus incubated in dark for 30 mins and grown for 24 hrs followed by further incubation on LB agar plates for another 24 hrs; assay type: functional
[5] = system: Staphylococcus aureus; assay: Antibacterial activity against methicillin-resistant Staphylococcus aureus incubated in dark for 30 mins followed by exposure to light fluences at 650 nm and 6 J/cm2 and then incubated overnight measured after 24 hrs; assay type: functional; settings: light or radiation study
[6] = Octanol water partition coefficient, log P of the compound by reverse-phase thin-layer chromatography; assay type: physicochemical
[7] = system: Pseudomonas aeruginosa; assay: Bactericidal activity against Pseudomonas aeruginosa ATCC 27853 incubated in dark for 30 mins followed by exposure to light fluences at 650 nm and 6 J/cm2 and then incubated overnight followed by further incubation on LB agar plates for another 24 hrs; assay type: functional; settings: ATCC 27853, light or radiation study
[8] = system: Pseudomonas aeruginosa; assay: Antibacterial activity against Pseudomonas aeruginosa ATCC 27853 incubated in dark for 30 mins and grown for 24 hrs followed by further incubation on LB agar plates for another 24 hrs; assay type: functional
[9] = system: Escherichia coli; assay: Bactericidal activity against Escherichia coli ATCC 25922 incubated in dark for 30 mins followed by exposure to light fluences at 650 nm and 6 J/cm2 and then incubated overnight followed by further incubation on LB agar plates for another 24 hrs; assay type: functional; settings: ATCC 25922, light or radiation study
[10] = system: Staphylococcus aureus; assay: Antibacterial activity against methicillin-resistant Staphylococcus aureus incubated in dark for 30 mins measured after 24 hrs; assay type: functional
[11] = Singlet oxygen generation of the compound exposed to 4.2 mW/cm2 light energy density assessed as singlet oxygen quantum yield measured at 410 nm in 10 seconds intervals of irradiation at 0.2 uM by DPBF scavenger based assay
[12] = system: Escherichia coli; assay: Antibacterial activity against Escherichia coli ATCC 25922 incubated in dark for 30 mins and grown for 24 hrs followed by further incubation on LB agar plates for another 24 hrs; assay type: functional
[13] = system: Staphylococcus aureus; assay: Bactericidal activity against methicillin-resistant Staphylococcus aureus incubated in dark for 30 mins followed by exposure to light fluences at 650 nm and 6 J/cm2 and then incubated overnight followed by further incubation on LB agar plates for another 24 hrs; assay type: functional; settings: light or radiation study
[14] = system: Escherichia coli; assay: Antibacterial activity against Escherichia coli ATCC 25922 incubated in dark for 30 mins followed by exposure to light fluences at 650 nm and 6 J/cm2 and then incubated overnight measured after 24 hrs; assay type: functional; settings: ATCC 25922, light or radiation study
[15] = system: Escherichia coli; assay: Antibacterial activity against Escherichia coli ATCC 25922 incubated in dark for 30 mins measured after 24 hrs; assay type: functional
[16] = system: Escherichia coli; assay: Antibacterial activity against Escherichia coli ATCC 25922 at 0.49 uM to 7.8 uM incubated in dark for 30 mins followed by exposure to light fluences at 650 nm and 6 J/cm2 and then incubated overnight measured after 24 hrs; assay type: functional, organism-based
[17] = system: Escherichia coli; assay: Antibacterial activity against Escherichia coli ATCC 25922 at 3.91 uM to 62.50 uM incubated in dark for 30 mins followed by exposure to light fluences at 650 nm and 6 J/cm2 and then incubated overnight measured after 24 hrs; assay type: functional, organism-based
[18] = system: Pseudomonas aeruginosa; assay: Antibacterial activity against Pseudomonas aeruginosa ATCC 27853 at 0.49 uM to 7.8 uM incubated in dark for 30 mins followed by exposure to light fluences at 650 nm and 6 J/cm2 and then incubated overnight measured after 24 hrs; assay type: functional, organism-based
[19] = system: Staphylococcus aureus; assay: Antibacterial activity against methicillin-resistant Staphylococcus aureus at 0.49 uM to 7.8 uM incubated in dark for 30 mins followed by exposure to light fluences at 650 nm and 6 J/cm2 and then incubated overnight measured after 24 hrs; assay type: functional, organism-based
[20] = system: Pseudomonas aeruginosa; assay: Antibacterial activity against Pseudomonas aeruginosa ATCC 27853 at 3.91 uM to 62.50 uM incubated in dark for 30 mins followed by exposure to light fluences at 650 nm and 6 J/cm2 and then incubated overnight measured after 24 hrs; assay type: functional, organism-based

Structure (SMILES)	Activity [1] [%]	MIC [2] [µM]	MIC [3] [µM]	MBC [4] [µM]	MIC [5] [µM]	logP [6]	MBC [7] [µM]	MBC [8] [µM]	MBC [9] [µM]	MIC [10] [µM]	Activity [11]	MBC [12] [µM]	MBC [13] [µM]	MIC [14] [µM]	MIC [15] [µM]	Activity [16]	Activity [17]	Activity [18]	Activity [19]	Activity [20]
NCCCC[C@H](N)C(=O)Nc1ccc(-c2c3nc(c(-c4ccc(N)cc4)c4ccc([nH]4)c(-c4ccc(N)cc4)c4nc(c(-c5ccc(N)cc5)c5ccc2[nH]5)C=C4)C=C3)cc1	< 20	500 (≈ 401 µg/mL)	250 (≈ 201 µg/mL)	> 500	250 (≈ 201 µg/mL)	1.4	> 500	> 500	500 (≈ 401 µg/mL)	250 (≈ 201 µg/mL)	0.17	500 (≈ 401 µg/mL)	500 (≈ 401 µg/mL)	250 (≈ 201 µg/mL)	250 (≈ 201 µg/mL)					
N=C(N)NCCC[C@H](N)C(=O)Nc1ccc(-c2c3nc(c(-c4ccc(N)cc4)c4ccc([nH]4)c(-c4ccc(N)cc4)c4nc(c(-c5ccc(N)cc5)c5ccc2[nH]5)C=C4)C=C3)cc1	< 20	62.5 (≈ 51.9 µg/mL)	62.5 (≈ 51.9 µg/mL)	500 (≈ 416 µg/mL)	62.5 (≈ 51.9 µg/mL)	1.25	250 (≈ 208 µg/mL)	250 (≈ 208 µg/mL)	125 (≈ 104 µg/mL)	62.5 (≈ 51.9 µg/mL)	0.47	125 (≈ 104 µg/mL)	500 (≈ 416 µg/mL)	62.5 (≈ 51.9 µg/mL)	62.5 (≈ 51.9 µg/mL)	inactive	inactive	inactive	inactive	inactive
NCCCC[C@H](N)C(=O)Nc1ccc(-c2c3nc(c(-c4ccccc4)c4ccc([nH]4)c(-c4ccc(N)cc4)c4nc(c(-c5ccccc5)c5ccc2[nH]5)C=C4)C=C3)cc1	< 20	62.5 (≈ 48.3 µg/mL)	125 (≈ 96.6 µg/mL)	250 (≈ 193 µg/mL)	62.5 (≈ 48.3 µg/mL)	1.46	125 (≈ 96.6 µg/mL)	250 (≈ 193 µg/mL)	125 (≈ 96.6 µg/mL)	125 (≈ 96.6 µg/mL)	0.27	125 (≈ 96.6 µg/mL)	250 (≈ 193 µg/mL)	62.5 (≈ 48.3 µg/mL)	62.5 (≈ 48.3 µg/mL)					
Nc1ccc(-c2c3nc(c(-c4ccccc4)c4ccc([nH]4)c(-c4ccccc4)c4nc(c(-c5ccccc5)c5ccc2[nH]5)C=C4)C=C3)cc1	< 20	62.5 (≈ 39.4 µg/mL)	125 (≈ 78.7 µg/mL)	500 (≈ 315 µg/mL)	125 (≈ 78.7 µg/mL)		125 (≈ 78.7 µg/mL)	250 (≈ 157 µg/mL)	125 (≈ 78.7 µg/mL)	125 (≈ 78.7 µg/mL)		500 (≈ 315 µg/mL)	500 (≈ 315 µg/mL)	62.5 (≈ 39.4 µg/mL)	125 (≈ 78.7 µg/mL)	inactive	inactive	inactive	inactive	inactive
Nc1ccc(-c2c3nc(c(-c4ccc(N)cc4)c4ccc([nH]4)c(-c4ccccc4)c4nc(c(-c5ccccc5)c5ccc2[nH]5)C=C4)C=C3)cc1	< 20	62.5 (≈ 40.3 µg/mL)	125 (≈ 80.6 µg/mL)	500 (≈ 322 µg/mL)	125 (≈ 80.6 µg/mL)		125 (≈ 80.6 µg/mL)	250 (≈ 161 µg/mL)	125 (≈ 80.6 µg/mL)	125 (≈ 80.6 µg/mL)		250 (≈ 161 µg/mL)	250 (≈ 161 µg/mL)	62.5 (≈ 40.3 µg/mL)	125 (≈ 80.6 µg/mL)	inactive	inactive	inactive	inactive	inactive
Nc1ccc(-c2c3nc(c(-c4ccc(N)cc4)c4ccc([nH]4)c(-c4ccc(NC(=O)[C@@H](N)Cc5c[nH]cn5)cc4)c4nc(c(-c5ccc(N)cc5)c5ccc2[nH]5)C=C4)C=C3)cc1	< 20	62.5 (≈ 50.7 µg/mL)	62.5 (≈ 50.7 µg/mL)	250 (≈ 203 µg/mL)	62.5 (≈ 50.7 µg/mL)	1.53	250 (≈ 203 µg/mL)	250 (≈ 203 µg/mL)	250 (≈ 203 µg/mL)	62.5 (≈ 50.7 µg/mL)	0.2	250 (≈ 203 µg/mL)	250 (≈ 203 µg/mL)	62.5 (≈ 50.7 µg/mL)	62.5 (≈ 50.7 µg/mL)	inactive	inactive	inactive	inactive	inactive
Nc1ccc(-c2c3nc(c(-c4ccc(N)cc4)c4ccc([nH]4)c(-c4ccc(N)cc4)c4nc(c(-c5ccc(N)cc5)c5ccc2[nH]5)C=C4)C=C3)cc1		125 (≈ 84.4 µg/mL)	125 (≈ 84.4 µg/mL)	500 (≈ 337 µg/mL)	62.5 (≈ 42.2 µg/mL)		250 (≈ 169 µg/mL)	250 (≈ 169 µg/mL)	250 (≈ 169 µg/mL)	125 (≈ 84.4 µg/mL)		250 (≈ 169 µg/mL)	125 (≈ 84.4 µg/mL)	125 (≈ 84.4 µg/mL)	125 (≈ 84.4 µg/mL)					
Nc1ccc(-c2c3nc(c(-c4ccccc4)c4ccc([nH]4)c(-c4ccc(N)cc4)c4nc(c(-c5ccccc5)c5ccc2[nH]5)C=C4)C=C3)cc1	< 20	125 (≈ 80.6 µg/mL)	125 (≈ 80.6 µg/mL)	125 (≈ 80.6 µg/mL)	62.5 (≈ 40.3 µg/mL)		250 (≈ 161 µg/mL)	250 (≈ 161 µg/mL)	500 (≈ 322 µg/mL)	62.5 (≈ 40.3 µg/mL)		> 500	125 (≈ 80.6 µg/mL)	125 (≈ 80.6 µg/mL)	> 500	inactive	inactive	inactive	inactive	inactive
C1=Cc2nc1c(-c1ccccc1)c1ccc([nH]1)c(-c1ccccc1)c1nc(c(-c3ccccc3)c3ccc([nH]3)c2-c2ccccc2)C=C1											0.64									
NCCCC[C@H](N)C(=O)Nc1ccc(-c2c3nc(c(-c4ccc(N)cc4)c4ccc([nH]4)c(-c4ccccc4)c4nc(c(-c5ccccc5)c5ccc2[nH]5)C=C4)C=C3)cc1	< 20	62.5 (≈ 48.3 µg/mL)	125 (≈ 96.6 µg/mL)	250 (≈ 193 µg/mL)	62.5 (≈ 48.3 µg/mL)	1.47	125 (≈ 96.6 µg/mL)	250 (≈ 193 µg/mL)	125 (≈ 96.6 µg/mL)	125 (≈ 96.6 µg/mL)	0.24	125 (≈ 96.6 µg/mL)	125 (≈ 96.6 µg/mL)	62.5 (≈ 48.3 µg/mL)	62.5 (≈ 48.3 µg/mL)					
